Consider 22 molecules from patent US12031152B2, “Nutrient media for the production of slaughter-free meat” (Upside Foods, Inc., priority 2020, dated 2024).

Data set [1] in a line: ADI of trace elements and other components. An excerpt: (§1) Several trace elements are essential to cell metabolism and growth. […] As a novel alternative to formulating trace elements directly, the present disclosure discloses the identification and testing of food-safe complexes that innately contain trace elements.
For data set [2] the following is noted: cited from earlier work; for Safe Reference Level for Human Dietary Intake: UL: Tolerable Upper Limit.
Data set [3] can be described thus: Safety assessment framework: risk categorization of media components.
Method: A safety assessment was conducted on each component of a given cell culture media under the procedure outlined below. […] Further overview of the categorical framework for ensuring that culture media components are safe and suitable for their intended use in meat production are outlined below according to their category designation. A list of media components used during meat production along with worst-case exposure estimates and relevant authoritative limits or published toxicological/safety data supporting their use is presented in Table 16. • Category 1: These cell culture media components are food ingredients/additives that are GRAS or permitted by federal regulation without limitation on use. Exemplary compounds in this category include innocuous ingredients such as sugars, pH buffers, water soluble vitamins, and common antioxidants such as tocopherols. • Category 2. These cell culture media components are common dietary nutrients and are anticipated to have GRAS status for food use or be permitted by regulation for addition to food. Examples of such compounds include most of the inorganic salts and macronutrients that are present within the cell culture media. […] In some instances, consideration of established safe levels (e.g., ADI, UL) derived from a relevant authoritative body (e.g., U.S. FDA, EFSA, JECFA, FSANZ, U.S. EPA) may be leveraged to support safety. If comparisons of anticipated dietary intakes relative to an authoritative reference intake value is used, consideration of additive intakes from all dietary sources may be considered. In the absence of an authoritative reference intake value, published NOAELs from animal toxicology studies may be used to evaluate safety using standard scientific procedures for food safety evaluation. A margin of exposure (MoE) of 100-fold or greater between the NOAEL and estimated dietary intakes from food exposures is typically considered adequate to support safety. In situations where the MoE is <100-fold, additional measures for further reduction of the media component may be necessary, or further characterization of intraspecies/interspecies differences in metabolism may be necessary. These situations also require careful consideration of the regulatory status on a case-by-case basis (e.g., premarket approval as a food additive or GRAS evaluation required). • Category 3. […] For Category 3 substances a final consideration in the safety assessment process may involve hazard characterization of the potential for a substance to produce toxic biological effects outside of the endpoints measured in a sub-chronic rat toxicity study. […] Considerations for allergenicity, biological effects in humans (e.g., effects on blood pressure), and synergistic effects with other media components also may be evaluated. […]
Data set [4] can be described thus: Margin between estimated intake of a 65 kg adult and rat NOAEL. To be noted: 65 kg adult.
Method: A safety assessment was conducted on each component of a given cell culture media under the procedure outlined below. […] Further overview of the categorical framework for ensuring that culture media components are safe and suitable for their intended use in meat production are outlined below according to their category designation. A list of media components used during meat production along with worst-case exposure estimates and relevant authoritative limits or published toxicological/safety data supporting their use is presented in Table 16. • Category 1: These cell culture media components are food ingredients/additives that are GRAS or permitted by federal regulation without limitation on use. Exemplary compounds in this category include innocuous ingredients such as sugars, pH buffers, water soluble vitamins, and common antioxidants such as tocopherols. • Category 2. These cell culture media components are common dietary nutrients and are anticipated to have GRAS status for food use or be permitted by regulation for addition to food. Examples of such compounds include most of the inorganic salts and macronutrients that are present within the cell culture media. […] In some instances, consideration of established safe levels (e.g., ADI, UL) derived from a relevant authoritative body (e.g., U.S. FDA, EFSA, JECFA, FSANZ, U.S. EPA) may be leveraged to support safety. If comparisons of anticipated dietary intakes relative to an authoritative reference intake value is used, consideration of additive intakes from all dietary sources may be considered. […] For Category 3 substances a final consideration in the safety assessment process may involve hazard characterization of the potential for a substance to produce toxic biological effects outside of the endpoints measured in a sub-chronic rat toxicity study. […] Considerations for allergenicity, biological effects in humans (e.g., effects on blood pressure), and synergistic effects with other media components also may be evaluated. […]
Data set [5] is described as follows: Maximum (worst-case) dietary exposure estimate per 100 g serving. To be noted: assumes complete transfer of media components to the finished product on a wt/wt basis.
Method: The average daily intake (ADI) is conventionally determined as a result of a safety factor of 100-fold below the experimentally derived No Observable Adverse Effect Limits (NOAEL) for an appropriate animal species for sub-chronic or acute exposure. […] The ADI is determined in an appropriately sensitive species, usually rodent, and it is reported as mg of substance/kg of animal body weight/24-hour period. Calculating the maximum theoretical concentration of each media compound in the final product is done by assuming 100% incorporation of the compound from the media into the product.
A safety assessment was conducted on each component of a given cell culture media under the procedure outlined below.
A further data set has as its system Adherent Gallus cells. Nature of the data set: Cellular response to cis recombinant Gallus FGF-2 vs commercial human recombinant FGF-2. To be noted: growth factor at 10 μg/L and 100 μg/L, five days. The format is cell-based. The method, then: Adherent Gallus cells were thawed and seeded at a density of 5000 cells/cm^2 in a T25-flask. One medium was prepared according to standard media hydration protocols. Dry powder media was added to DI water in a clean vessel and allowed to stir until all components were dissolved. The pH and osmolality of the medium were adjusted to 7.4 and 300 mOsm/kg respectively. The medium was then filtered using a 0.22 μm PES filtration unit and stored at 4° C. until use. Prior to use, the medium was allowed to come up to room temperature. Cells were seeded in the inner wells of a 96-well cell culture plate. Wells were either seeded with one of two different FGF-2 growth factors, a recombinant Gallus FGF-2 produced as described in Example 5, or a commercially available recombinant human FGF-2, or without any growth factors. Each growth factor was seeded at two different concentrations, 10 μg/L or 100 μg/L. Test conditions were all seeded in triplicate at a density of 5000 cells/cm^2. Cells were incubated at 39° C. in 5% CO2 in a Biotek BioSpa Live Cell Analysis System (BioSpa) for five days. Cells were imaged every 12 hours using the BioSpa. Images were processed using BioTeck Gen5 Data Analysis software. Data was then exported and analyzed using Microsoft Excel and SAS JMP.

Data set [6] deals with cells. Nature of the data set: Screening of cobalt compounds to replace cobalt chloride. The class given is cell-based. To be noted: replacement of cobalt chloride. An excerpt:
Cobalt is an essential cofactor nutrient for many enzymatic pathways that contribute to metabolic and cellular function. Cobalt chloride is a commonly used source of cobalt in culture media. Cobalt chloride is strictly prohibited by the FDA for use in food. In order to find a suitable replacement, many cobalt compounds were screened. Eventually, Vitamin B12 in the form of cyanocobalamin, which contains bioavailable cobalt at its chiral center, was found. […] In some embodiments the method comprises removing cobalt chloride. In some embodiments the method comprises replacing cobalt chloride with cyanocobalamin (Vit B12).

The test system of data set [7] is cells. To be noted: FAC 0.5 mg/ml-50 mg/ml, up to 275 hours, vs cells without FAC.
From the text: as §1

Turning to `O=C(O)CCCCC1CCSS1` (racemic) [DL-ALPHA-LIPOIC ACID], the ADI in data set [1] came to 5.14 mg/kg bw-day.

For the molecule `CC(=O)Oc1c(C)c(C)c2c(c1C)CCC(C)(CCCC(C)CCCC(C)CCCC(C)C)O2` (racemic) [DL-ALPHA-TOCOPHEROL ACETATE], the “Safe Reference Level for Human Dietary Intake: UL” value in data set [2] is reported as “UL = 1000 mg/d”.

With `Cc1c(C)c2c(c(C)c1O)CC[C@@](C)(CCC[C@H](C)CCC[C@H](C)CCCC(C)C)O2` [D-ALPHA-TOCOPHEROL], in data set [2], the “Safe Reference Level for Human Dietary Intake: UL” value is “UL = 1000 mg/d”.

`N[C@@H](CCC(=O)[O-])C(=O)O.O.[Na+]` [L-GLUTAMIC ACID MONOSODIUM H20]: the “Risk Assessment Category” value in data set [3] is listed as 2.

Consider `O=S(=O)([O-])[O-].[Mg+2]` [MAGNESIUM SULFATE (ANHY)], for which, in data set [2] (NS = not specified as no evidence of toxicity from excess intake known), the “Safe Reference Level for Human Dietary Intake: UL (in words)” value was “No UL for food”.

As for `NCCO` [MONOETHANOLAMINE], in data set [4] (rat NOAEL), the “Intakes below NOAEL” value was “kg adult are 128 fold”.

The molecule `Cl.Cl.NCCCCN` [PUTRESCINE-2HCl] showed an ADI in data set [1] of 0.018 mg/kg bw-day.

On to `[Cl-].[Rb+]` [RUBIDIUM CHLORIDE], for which the ADI in data set [1] turned out to be 0.051 mg/kg bw-day.

For `O.O.[Na+].[Na+].[O]=[Mo](=[O])([O-])[O-]` [SODIUM MOLYBDATE-2H2O], the ADI in data set [1] is given as 1.41 mg/kg bw-day.

Regarding `O=P([O-])([O-])O.[Na+].[Na+]` [SODIUM PHOSPHATE DIBASIC-ANHY], the “Maximum Estimated Exposure per 100 g serving” value in data set [5] is 4.3 g. For the same molecule, in data set [3], the “Risk Assessment Category” value was 1.

As for `O.O.O.O.O.O.O=C([O-])CCC(=O)[O-].[Na+].[Na+]` [SODIUM SUCCINATE-2Na 6H20], the “Intakes below NOAEL” value in data set [4] (NOAEL from 2 year rat study) is “are >1000 fold below”.

On to `O.O.O.O.O.O.[Cl-].[Cl-].[Sr+2]` [STRONTIUM CHLORIDE HEXAHYDRATE], for which, in data set [1], the ADI is 1.87 mg/kg bw-day.

Regarding `O=C(O)CCC(=O)O` [SUCCINIC ACID], the “Intakes below NOAEL” value in data set [4] (NOAEL from 2 year rat study) is given as “adult are 257-fold”.

Turning to `Cc1cn([C@H]2C[C@H](O)[C@@H](CO)O2)c(=O)[nH]c1=O` [THYMIDINE SYNTHETIC, THYMIDINE], the ADI in data set [1] is 83.1 mg/kg bw-day.

For `CCCCCCCC/C=C\CCCCCCCC(=O)OCCOCC(OCCO)C1OCC(OCCO)C1OCCO` (stereo not shown) [TWEEN 80], the “Safe Reference Level for Human Dietary Intake: ADI” value in data set [2] (Acceptable Daily Intake) is reported as “ADI = 10 mg/kg bw/d”.

Turning to `C=C1CC[C@H](O)C/C1=C/C=C1\CCC[C@]2(C)[C@@H]([C@H](C)/C=C/[C@H](C)C(C)C)CC[C@@H]12` [VITAMIN D2 (ERGOCALCIFEROL), ERGOCALCIFEROL], the “Safe Reference Level for Human Dietary Intake: UL” value in data set [2] was “UL = 100 ug/d”.

With CALCIUM D-PANTOTHENATE, in data set [3], the “Risk Assessment Category” value is given as 1.

Regarding FERRIC CITRATE, in data set [3], the “Risk Assessment Category” value is listed as 2.

Consider “commercial human FGF-2: commercially available recombinant human FGF-2 [reference compound]”, for which the cellular response result with Adherent Gallus cells was “equivalent activity”; with Adherent Gallus cells (listed as human recombinant FGF-2), “equivalent response”.

Consider “cyanocobalamin [VITAMIN B12 (CYANCOCOBALAMIN)]”, for which the “supply of cobalt to promote cellular function” value in the data set with cells [6] was “sufficiently supplied cobalt”.

As for ferric ammonium citrate [FAC], the “cell viability over time” value with cells [7] is “maintain high viability over time”.

B1: cis Gallus FGF-2: recombinant Gallus FGF-2 produced in E. coli as described in Example 5 (protein, UniProt P48800 13-158, looked up)
Fibroblast growth factor 2: PALPDDGGGGAFPPGHFKDPKRLYCKNGGFFLRINPDGRVDGVREKSDPHIKLQLQAEERGVVSIKGVSANRFLAMKEDGRLLALKCATEECFFFERLESNNYNTYRSRKYSDWYVALKRTGQYKPGPKTGPGQKAILFLPMSAKS
B1: the cellular response result in the data set with Adherent Gallus cells is recorded as “equivalent activity”; in the data set on Adherent Gallus cells (listed as cis recombinant Gallus FGF-2) it was “equivalent response”.
